Experimental data published in ChEMBL document CHEMBL2311454, “Discovery and evaluation of novel inhibitors of mycobacterium protein tyrosine phosphatase B from the 6-Hydroxy-benzofuran-5-carboxylic acid scaffold” (J Med Chem, 2013).
Calls of active or inactive are those of the source. No cut-off for these calls is given here.

Assays:
[1] = Inhibition of Mycobacterium tuberculosis PTPB expressed in Escherichia coli using pNPP substrate after 5 mins by spectrophotometric analysis
[2] = target: T1, Tyrosine-protein phosphatase non-receptor type 9 (Homo sapiens, UniProt P43378); assay: Inhibition of PTPMEG2 (unknown origin) expressed in Escherichia coli using pNPP substrate after 5 mins by spectrophotometric analysis
T1 sequence (P43378 whole entry): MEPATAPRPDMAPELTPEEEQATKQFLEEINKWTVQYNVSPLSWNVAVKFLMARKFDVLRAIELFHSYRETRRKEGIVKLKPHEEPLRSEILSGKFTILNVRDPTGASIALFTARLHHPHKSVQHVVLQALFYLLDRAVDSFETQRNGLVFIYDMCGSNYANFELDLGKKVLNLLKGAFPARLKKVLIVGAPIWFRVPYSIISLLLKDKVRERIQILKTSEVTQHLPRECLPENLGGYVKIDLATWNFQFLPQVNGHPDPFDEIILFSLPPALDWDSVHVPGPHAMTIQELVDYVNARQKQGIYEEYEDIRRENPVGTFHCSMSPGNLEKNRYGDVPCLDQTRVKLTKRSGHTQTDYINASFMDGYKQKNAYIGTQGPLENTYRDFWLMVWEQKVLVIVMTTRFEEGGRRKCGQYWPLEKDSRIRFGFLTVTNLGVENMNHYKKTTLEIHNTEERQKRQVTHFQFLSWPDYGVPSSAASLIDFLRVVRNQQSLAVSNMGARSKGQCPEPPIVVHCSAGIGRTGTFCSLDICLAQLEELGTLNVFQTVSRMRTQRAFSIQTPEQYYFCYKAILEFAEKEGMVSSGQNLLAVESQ

[3] = target: T2, Tyrosine-protein phosphatase non-receptor type 11 (Homo sapiens, UniProt Q06124); assay: Inhibition of SHP2 (unknown origin) expressed in Escherichia coli using pNPP substrate after 5 mins by spectrophotometric analysis
T2 sequence (Q06124 whole entry): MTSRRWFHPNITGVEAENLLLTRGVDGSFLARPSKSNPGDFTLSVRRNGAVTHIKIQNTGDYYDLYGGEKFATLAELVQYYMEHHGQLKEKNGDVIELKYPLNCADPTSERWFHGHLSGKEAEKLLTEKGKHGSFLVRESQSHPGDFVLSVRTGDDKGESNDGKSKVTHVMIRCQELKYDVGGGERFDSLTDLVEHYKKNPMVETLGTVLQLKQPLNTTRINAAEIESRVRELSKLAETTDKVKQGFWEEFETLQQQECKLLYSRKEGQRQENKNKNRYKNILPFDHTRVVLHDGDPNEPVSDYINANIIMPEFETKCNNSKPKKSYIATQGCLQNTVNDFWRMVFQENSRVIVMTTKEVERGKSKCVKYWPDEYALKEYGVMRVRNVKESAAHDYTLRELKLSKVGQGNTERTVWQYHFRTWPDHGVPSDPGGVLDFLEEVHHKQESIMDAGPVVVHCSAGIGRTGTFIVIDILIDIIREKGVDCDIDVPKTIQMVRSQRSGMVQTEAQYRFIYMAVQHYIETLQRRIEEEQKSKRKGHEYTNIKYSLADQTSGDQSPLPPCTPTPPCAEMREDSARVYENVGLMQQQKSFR

[4] = target: T3, Tyrosine-protein phosphatase non-receptor type 2 (Homo sapiens, UniProt P17706); assay: Inhibition of TCPTP (unknown origin) expressed in Escherichia coli using pNPP substrate after 5 mins by spectrophotometric analysis
T3 sequence (P17706 whole entry): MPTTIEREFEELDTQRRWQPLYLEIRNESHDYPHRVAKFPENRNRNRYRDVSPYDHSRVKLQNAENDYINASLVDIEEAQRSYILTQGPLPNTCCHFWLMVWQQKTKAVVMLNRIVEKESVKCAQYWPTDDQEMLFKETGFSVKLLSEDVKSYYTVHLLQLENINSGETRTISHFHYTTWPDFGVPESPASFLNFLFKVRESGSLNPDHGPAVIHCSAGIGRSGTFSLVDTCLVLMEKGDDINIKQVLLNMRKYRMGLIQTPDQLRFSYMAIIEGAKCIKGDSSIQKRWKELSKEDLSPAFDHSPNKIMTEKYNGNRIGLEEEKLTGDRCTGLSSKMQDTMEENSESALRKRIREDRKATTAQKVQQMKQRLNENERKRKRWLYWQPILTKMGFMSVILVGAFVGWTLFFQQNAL

[5] = tested on: Mycobacterium tuberculosis; assay: Inhibition of Mycobacterium tuberculosis PTPB expressed in mouse RAW264.7 macrophages assessed as restoration of IFNgamma-induced IL-6 production after 1 hr by ELISA
[6] = tested on: Mycobacterium tuberculosis; assay: Inhibition of Mycobacterium tuberculosis PTPB expressed in mouse RAW264.7 macrophages assessed as restoration of IFNgamma-induced p38 activation after 1 hr by Western blotting analysis
RAW264.7 [7] = assay: Inhibition of Mycobacterium tuberculosis PTPB expressed in mouse RAW264.7 macrophages assessed as decrease in Akt activity after 1 hr by Western blotting analysis; assay type: cell-based
RAW264.7 [8] = assay: Inhibition of Mycobacterium tuberculosis PTPB expressed in mouse RAW264.7 macrophages assessed as induction of apoptosis after 1 hr by annexin V-FITC /propidium iodide staining-based flow cytometric analysis; assay type: cell-based
RAW264.7 [9] = assay: Inhibition of Mycobacterium tuberculosis PTPB expressed in mouse RAW264.7 macrophages assessed as increase in caspase activity after 1 hr by spectrophotometric analysis; assay type: cell-based
[10] = tested on: Mycobacterium tuberculosis; assay: Inhibition of Mycobacterium tuberculosis PTPB expressed in mouse RAW264.7 macrophages assessed as restoration of IFNgamma-induced ERK1/2 activation after 1 hr by Western blotting analysis

SMILES	IC50 [1] [µM]	IC50 [2] [µM]	IC50 [3] [µM]	IC50 [4] [µM]	inhibition [5]	inhibition [6]	inhibition (RAW264.7 [7])	inhibition (RAW264.7 [8])	inhibition (RAW264.7 [9])	inhibition [10]
O=C(O)c1cc2c(C#CCO)c(-c3ccccc3)oc2cc1O	22	> 100	> 100	> 100						
O=C(O)c1cc2c(CCc3cccc(C(F)(F)F)c3)c(-c3ccccc3)oc2cc1O		8.6	4.5	10						
O=C(O)c1cc2c(CCc3ccc(Oc4ccccc4)cc3)c(-c3ccccc3)oc2cc1O		7.7	3.6	11.8						
O=C(O)c1cc2c(/C=C\c3cc(F)cc(F)c3)c(-c3ccccc3)oc2cc1O	1.2	9.2	5	9.5						
C[C@]12CCC(=O)C=C1CC[C@@H]1[C@@H]2CC[C@@]2(C)[C@H]1CC[C@]2(O)C#Cc1c(-c2ccccc2)oc2cc(O)c(C(=O)O)cc12	5.09	> 100	30	> 50						
O=C(O)c1cc2c(CCc3ccc(OC(F)(F)F)cc3)c(-c3ccccc3)oc2cc1O	3.4	8.4		8.9	inactive	inactive	inactive	inactive	inactive	inactive
C#Cc1c(-c2ccccc2)oc2cc(O)c(C(=O)O)cc12		85	31	> 50						
O=C(O)c1cc2c(CCc3cccc(F)c3)c(-c3ccccc3)oc2cc1O		110	10.9	33						
